Among the data in patent US20170240513A1, “SUBSTITUTED PYRIMIDINES AS INHIBITORS OF HIF PROLYL HYDROXYLASE” (MERCK SHARP & DOHME CORP., priority 2014, published 2017) are IC50 values, retold here.

SMILES strings stand for the structures.

T1 sequence (Q9GZT9 whole entry): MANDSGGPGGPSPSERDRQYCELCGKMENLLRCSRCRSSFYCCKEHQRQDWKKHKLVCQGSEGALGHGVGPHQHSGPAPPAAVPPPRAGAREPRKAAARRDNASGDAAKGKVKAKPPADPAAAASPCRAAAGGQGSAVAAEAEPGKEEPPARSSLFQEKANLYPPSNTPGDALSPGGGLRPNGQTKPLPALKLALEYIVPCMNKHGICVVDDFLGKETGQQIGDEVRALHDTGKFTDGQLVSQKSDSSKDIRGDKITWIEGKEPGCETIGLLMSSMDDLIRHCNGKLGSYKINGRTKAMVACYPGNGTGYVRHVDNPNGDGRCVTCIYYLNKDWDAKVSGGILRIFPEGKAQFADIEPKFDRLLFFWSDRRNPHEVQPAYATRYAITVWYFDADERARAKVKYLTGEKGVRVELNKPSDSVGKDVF

This test concerns the target T1, human HIF-PHD2 (Homo sapiens, UniProt Q9GZT9).
T1 construct: FLAG-tagged full length PHD2 expressed in and purified from baculovirus-infected Sf9 cells; FLAG; made in house; host or cells: baculovirus-infected Sf9 cells
Put plainly: HIF-PHD2 inhibition of HIF-1α peptide hydroxylation (time resolved fluorescence). It is filed as biochemical. To be noted: FLAG-tagged full length PHD2; 0.2 μM 2-oxoglutarate, 0.5 μM HIF-1α peptide. As to the method:
Select examples of assays that may be used to detect favorable activity are disclosed in the following publications: Oehme, F., et al., Anal. Biochem. 330:74-80 (2004); Hirsilä, M, et al., J. Bio. Chem. 278 (33): 30772-30780 (2005); Hyunju, C., et al., Biochem. Biophys. Res. Comm. 330 275-280 (2005); and Hewitson, K. S., et al., Methods in Enzymology, (Oxygen Biology and Hypoxia); Elsevier Publisher (2007), pg. 25-42 (ISSN: 0076-6879).
To each well of a 384-well plate, 1 μL of test compounds in DMSO (final concentration ranging from 0.3 nM to 10 uM) were added into 20 μl of assay buffer (50 mM Tris pH 7.4/0.01% Tween-20/0.1 mg/ml bovine serum albumin/[…]/1 mM sodium ascorbate/20 μg/ml catalase) containing 0.15 μg/ml FLAG-tagged full length PHD2 expressed in and purified from baculovirus-infected Sf9 cells. After a 5 min preincubation at room temperature, the enzymatic reactions were initiated by the addition of 4 μL of substrates {final concentrations of 0.2 μM 2-oxoglutarate and 0.5 μM HIF-1α peptide biotinyl-DLDLEMLAPYIPMDDDFQL (SEQ ID NO: 1)}. After incubation for 45 minutes at room temperature, the reactions were terminated by the addition of a 25 μL quench/detection mix to a final concentration of 1 mM ortho-phenanthroline, 0.1 mM EDTA, 0.5 nM anti-(His)6 LANCE reagent (Perkin-Elmer Life Sciences), 100 nM AF647-labeled streptavidin (Invitrogen), and 2 μg/ml (His)6-VHL complex {S. Tan Protein Expr. Purif. 21, 224-234 (2001)} and the signals were developed for 30 minutes at room temperature. The ratio of time resolved fluorescence signals at 665 and 620 nm was determined, and percent inhibition was calculated relative to the high control samples (DMSO treated) run in parallel, after background subtraction.
In the case of `CC(C)OC(=O)COC(=O)C(C)CNC(=O)c1ncc(C(=O)NC(c2ccccc2)c2ccccc2)c(O)n1` (single isomer, unassigned) [Ex. 30, 2-Isopropoxy-2-oxoethyl 3-(5-(benzhydrylcarbamoyl)-4-hydroxypyrimidine-2-carboxamido)-2-methylpropanoate], it took 179 nM to reach half-maximal inhibition (IC50).
With `CCOC(=O)C(C)(O)CNC(=O)c1ncc(C(=O)NC(c2ccccc2)c2ccccc2)c(O)n1` (single isomer, unassigned) [Example 26, Ethyl 3-(5-(benzhydrylcarbamoyl)-4-hydroxypyrimidine-2-carboxamido)-2-hydroxy-2-methylpropanoate] the figure was 940 nM; with `CCOC(=O)C(C)(O)CNC(=O)c1ncc(C(=O)NC(c2ccccc2)c2ccccc2)c(O)n1` (single isomer, unassigned) [Example 27, Ethyl 3-(5-(benzhydrylcarbamoyl)-4-hydroxypyrimidine-2-carboxamido)-2-hydroxy-2-methylpropanoate], 879 nM; with `COC(=O)CCNC(=O)c1ncc(C(=O)NC(c2ccccc2)c2ccccc2)c(O)n1` [Ex. 1, Methyl 3-(5-(benzhydrylcarbamoyl)-4-hydroxypyrimidine-2-carboxamido)propanoate], 14.3 nM.
In turn, `O=C(CCNC(=O)c1ncc(C(=O)NC(c2ccccc2)c2ccccc2)c(O)n1)OCCN1CCOCC1` [Ex. 2, 2-morpholinoethyl 3-(5-(benzhydrylcarbamoyl)-4-hydroxypyrimidine-2-carboxamido)propanoate] returned an IC50 of 24.9 nM.
In the case of `CCOC(=O)C1(CNC(=O)c2ncc(C(=O)NC(c3ccccc3)c3ccccc3)c(O)n2)CC1` [Ex. 3, ethyl 1-((5-(benzhydrylcarbamoyl)-4-hydroxypyrimidine-2-carboxamido)methyl)cyclopropanecarboxylate], inhibition was half-maximal at 35.6 nM (IC50). This IC50 and that of the compound before are within 1.5-fold of each other.
Turning to `CCOC(=O)C(C)(O)CNC(=O)c1ncc(C(=O)NC(c2ccccc2)c2ccccc2)c(O)n1` (stereo not drawn) [Ex. 4, ethyl 3-(5-(benzhydrylcarbamoyl)-4-hydroxypyrimidine-2-carboxamido)-2-hydroxy-2-methylpropanoate], it took 871 nM to reach half-maximal inhibition (IC50).
As for `CCOC(=O)[C@H](O)CNC(=O)c1ncc(C(=O)NC(c2ccccc2)c2ccccc2)c(O)n1` [Ex. 5, (R)-ethyl 3-(5-(benzhydrylcarbamoyl)-4-hydroxypyrimidine-2-carboxamido)-2-hydroxypropanoate], the figure is 46.4 nM.
On to `CC(=O)OCOC(=O)CCNC(=O)c1ncc(C(=O)NC(c2ccccc2)c2ccccc2)c(O)n1` [Ex. 7, Acetoxymethyl 3-(5-(benzhydrylcarbamoyl)-4-hydroxypyrimidine-2-carboxamido)propanoate], for which the IC50 was 3.11 nM.
`CC(C)OC(=O)OCOC(=O)CCNC(=O)c1ncc(C(=O)NC(c2ccccc2)c2ccccc2)c(O)n1` [Ex. 8, ((isopropoxycarbonyl)oxy)methyl 3-(5-(benzhydrylcarbamoyl)-4-hydroxypyrimidine-2-carboxamido)propanoate] registered an IC50 of 2.81 nM.
With `CCOC(=O)OC(C)OC(=O)CCNC(=O)c1ncc(C(=O)NC(c2ccccc2)c2ccccc2)c(O)n1` (stereo not drawn) [Ex. 9, 1-((ethoxycarbonyl)oxy)ethyl 3-(5-(benzhydrylcarbamoyl)-4-hydroxypyrimidine-2-carboxamido)propanoate] the figure was 6.67 nM.
As to `CC(C)OC(=O)OC(C)OC(=O)CCNC(=O)c1ncc(C(=O)NC(c2ccccc2)c2ccccc2)c(O)n1` (stereo not drawn) [Ex. 10, 1-((isopropoxycarbonyl)oxy)ethyl 3-(5-(benzhydrylcarbamoyl)-4-hydroxypyrimidine-2-carboxamido)propanoate], the midpoint of inhibition, the IC50, lay at 37.2 nM.
In turn, `CC(OC(=O)CCNC(=O)c1ncc(C(=O)NC(c2ccccc2)c2ccccc2)c(O)n1)OC(=O)OC1CCCCC1` (stereo not drawn) [Ex. 11, 1-(((cyclohexyloxy)carbonyl)oxy)ethyl 3-(5-(benzhydrylcarbamoyl)-4-hydroxypyrimidine-2-carboxamido)propanoate] came in with an IC50 of 42.1 nM.
With `CCOC(=O)OCOC(=O)CCNC(=O)c1ncc(C(=O)NC(c2ccccc2)c2ccccc2)c(O)n1` [Ex. 12, ((ethoxycarbonyl)oxy)methyl 3-(5-(benzhydrylcarbamoyl)-4-hydroxypyrimidine-2-carboxamido)propanoate] the figure was 2.46 nM.
As for `CN(C)C(=O)COC(=O)CCNC(=O)c1ncc(C(=O)NC(c2ccccc2)c2ccccc2)c(O)n1` [Ex. 13, 2-(Dimethylamino)-2-oxoethyl 3-(5-(benzhydrylcarbamoyl)-4-hydroxypyrimidine-2-carboxamido)propanoate], the IC50 is 159 nM. This IC50 is about 65-fold higher than that of the compound before.
With `O=C1CCN(C(=O)c2ncc(C(=O)NC(c3ccccc3)c3ccccc3)c(O)n2)CO1` [Ex. 14, N-Benzhydryl-4-hydroxy-2-(6-oxo-1,3-oxazinane-3-carbonyl)pyrimidine-5-carboxamide] the figure was 11.2 nM; with `O=C(CNC(=O)c1ncc(C(=O)NC(c2ccccc2)c2ccccc2)c(O)n1)Oc1ccc2c(c1)CCC2` [Ex. 15, 2,3-Dihydro-1H-inden-5-yl 2-(5-(benzhydrylcarbamoyl)-4-hydroxypyrimidine-2-carboxamido)acetate], 11.2 nM; with `CN(C)C(=O)COC(=O)CNC(=O)c1ncc(C(=O)NC(c2ccccc2)c2ccccc2)c(O)n1` [Ex. 16, 2-(dimethylamino)-2-oxoethyl 2-(5-(benzhydrylcarbamoyl)-4-hydroxypyrimidine-2-carboxamido)acetate], 105 nM.
With `O=C1CN(C(=O)c2ncc(C(=O)NC(c3ccccc3)c3ccccc3)c(O)n2)CO1` [Ex. 17, N-Benzhydryl-4-hydroxy-2-(5-oxooxazolidine-3-carbonyl)pyrimidine-5-carboxamide] the figure was 15.1 nM; with `CC(C)OC(=O)OC(C)OC(=O)CNC(=O)c1ncc(C(=O)NC(c2ccccc2)c2ccccc2)c(O)n1` (stereo not drawn) [Ex. 18, 1-((isopropoxycarbonyl)oxy)ethyl 2-(5-(benzhydrylcarbamoyl)-4-hydroxypyrimidine-2-carboxamido)acetate], 43.9 nM; with `CCOC(=O)OC(C)OC(=O)CNC(=O)c1ncc(C(=O)NC(c2ccccc2)c2ccccc2)c(O)n1` (stereo not drawn) [Ex. 19, 1-((ethoxycarbonyl)oxy)ethyl 2-(5-(benzhydrylcarbamoyl)-4-hydroxypyrimidine-2-carboxamido)acetate], 32.2 nM.
As for `CC(C)OC(=O)OCOC(=O)CNC(=O)c1ncc(C(=O)NC(c2ccccc2)c2ccccc2)c(O)n1` [Ex. 20, ((Isopropoxycarbonyl)oxy)methyl 2-(5-(benzhydrylcarbamoyl)-4-hydroxypyrimidine-2-carboxamido)acetate], the figure is 41 nM; as for `CC(C)C(=O)OCOC(=O)CNC(=O)c1ncc(C(=O)NC(c2ccccc2)c2ccccc2)c(O)n1` [Ex. 21, (2-(5-(benzhydrylcarbamoyl)-4-hydroxypyrimidine-2-carboxamido)acetoxy)methyl isobutyrate], 35 nM.
In turn, `CCOC(=O)OCOC(=O)CNC(=O)c1ncc(C(=O)NC(c2ccccc2)c2ccccc2)c(O)n1` [Ex. 22] gave an IC50 of 14.7 nM.
In turn, `CC(OC(=O)[C@H](O)CNC(=O)c1ncc(C(=O)NC(c2ccccc2)c2ccccc2)c(O)n1)C(=O)OCc1ccccc1` (stereo partly drawn) [Ex. 23, (2R)-1-(Benzyloxy)-1-oxopropan-2-yl 3-(5-(benzhydrylcarbamoyl)-4-hydroxypyrimidine-2-carboxamido)-2-hydroxypropanoate] registered an IC50 of 11.2 nM. This IC50 and that of the compound before are within 1.5-fold of each other.
With `CCOC(=O)C(OC(=O)[C@H](O)CNC(=O)c1ncc(C(=O)NC(c2ccccc2)c2ccccc2)c(O)n1)c1ccccc1` (stereo partly drawn) [Ex. 24, (2R)-2-ethoxy-2-oxo-1-phenylethyl 3-(5-(benzhydrylcarbamoyl)-4-hydroxypyrimidine-2-carboxamido)-2-hydroxypropanoate] the figure was 326 nM; with `O=C(NC[C@@H](O)C(=O)OC1CCCCC1O)c1ncc(C(=O)NC(c2ccccc2)c2ccccc2)c(O)n1` (stereo partly drawn) [Ex. 25, (2R)-2-Hydroxycyclohexyl 3-(5-(benzhydrylcarbamoyl)-4-hydroxypyrimidine-2-carboxamido)-2-hydroxypropanoate], 182 nM.
On to `CC(C)OC(=O)COC(=O)[C@H]1C[C@H](NC(=O)c2ncc(C(=O)NC(c3ccccc3)c3ccccc3)c(O)n2)C1` [Ex. 29, (1R,3R)-2-isopropoxy-2-oxoethyl 3-(5-(benzhydrylcarbamoyl)-4-hydroxypyrimidine-2-carboxamido)cyclobutanecarboxylate], for which the IC50 came to 171 nM.
As to `CC(C)OC(=O)CCNC(=O)c1ncc(C(=O)NC(c2ccccc2)c2ccccc2)c(O)n1` [Example 6, Isopropyl 3-(5-(benzhydrylcarbamoyl)-4-hydroxypyrimidine-2-carboxamido)propanoate], the IC50 stood at 15.9 nM. This IC50 lies about 11-fold lower than the previous one.
With `O=C(CCNC(=O)c1ncc(C(=O)NC(c2ccccc2)c2ccccc2)c(O)n1)OCc1ccccc1` [Example 28], 24.3 nM corresponded to half-maximal inhibition (IC50).

The IC50 is the concentration at which inhibition is half-maximal. A higher IC50 goes with weaker potency.
